According to US20250134949A1, “PROMININ-1 PEPTIDE FOR TREATING LUNG INJURY” (Children's Medical Center Corporation, priority 2017, published 2025):
Values belong to the molecule of their own block, whether it stands above or below them. No end group written: not given here.

Columns and labels:
VEGFR-2 = experiment: Lung cell VEGFR-2 phosphorylation after inhalation of nebulized peptide (FACS); format: in vivo, mouse; settings: live mice, nebulized (20 min), lung cells harvested 30 minutes after end of inhalation; compared to SP
Excerpt: VEGF mediates cell survival and apoptosis pathways via binding to and activation of VEGFR-2 and signaling through the PI3K/AKT pathway (13). […] To evaluate the effect of PR1P on VEGF signaling in the lung, both FACS and Western blotting were used to measure the levels of phosphorylated VEGFR-2 and AKT in the human lung respiratory epithelial cell line BEAS-2B in response to treatment with PR1P, scrambled peptide (SP), or VEGF. […] To determine whether PR1P also effectively modulated VEGF signaling in the lungs of animals (i.e. whether PR1P was bioactive in-vivo) live mice were treated with nebulized VEGF, SP or PR1P (20 min) and performed FACS analysis on lung cells harvested from treated animals 30 minutes after the end of inhalation. […]
Lungs were harvested from treated animals, cut into small pieces using surgical scissors and suspended and gently stirred in 3 ml serum free BEBM containing Liberase (2 mg ml, Sigma-Aldrich, St. Louis, MO). […] Cells were subsequently washed with FACS media and analyzed by a flow cytometer (BD Biosciences, San Jose, CA, USA) running FlowJo 7.2.2, software (Tomy Digital Biology. Tokyo, Japan).

VEGFR2 = experiment: PR1P induced VEGFR2 phosphorylation in Beas-2B cells with or without SU5416 (FACS); format: cell-based, human; settings: then PR1P (125 μM) 20 min
Procedure: (§1) It was previously shown in part that PR1P binds VEGF, increases VEGF binding to VEGF receptors, and induces downstream VEGF signaling including the phosphorylation of VEGF receptor 2 and AKT. To determine whether PR1P mediation of VEGF signaling requires VEGFR2 activation, lung epithelial cells (Beas-2B) were treated with the specific VEGFR2 inhibitor SU5416 ([…]) or with vehicle alone as control for 24 hours and then exposed PR1P (125 μM) or vehicle for 20 min. Cells were then harvested and levels of phosphorylated VEGFR2 and AKT were assessed using FACS. […] These findings strongly support the notion that PR1P upregulation of VEGF signaling requires VEGFR-2 activation.
(§2) Serum-starved monolayers of Beas-2B cells were incubated in the presence or absence of SU5416 (20 μM) for 24 h on 10 cm tissue culture plates. After single washing with PBS, the cells were treated with 3 ml of starvation media in the presence of PR1P (125 […]) or vehicle as control for 20 minutes at 37° C. At the conclusion of the experiments, cells were prepared for FACS analysis using standard procedures. Cells were analyzed for levels of phosphorylated VEGFR2 and AKT using anti pAKT and pVEGFR2 antibodies (Cell signaling, Danvers MA).

AKT = experiment: PR1P induced AKT phosphorylation in Beas-2B cells with or without SU5416 (FACS); format: cell-based, human; settings: then PR1P (125 μM) 20 min
Procedure: as §1, §2

[1] = in vivo; cited from earlier work
[2] = Observation of ill effects during inhalation studies; format: in vivo, mouse; settings: 24-hour experimental period, delivered directly into the lungs; data not shown
Excerpt: These and similar findings led many to believe that over-expression of VEGF in the lung could be curative in emphysema (54), however, enthusiasm for this type of therapy is tempered by clinical trials using systemic VEGF therapy (41) that were complicated by systemic and pulmonary toxicities including increased vascular permeability leading to hypotension (55) and tissue and lung edema (56, 57). […] The results outlined herein raise the possibility that a strategy to use PR1P to upregulate endogenous VEGF signaling in vivo may avoid toxicity seen with alternative and more conventional forms of VEGF therapy. […] PR1P could be used to avoid complications associated with constitutive VEGF over-expression or systemic VEGF treatment by stabilizing and potentiating the signaling of local endogenous VEGF. It will be important to clearly delineate the fate and pharmacokinetics of PR1P in evaluating its toxicity potential. Because of its small size, PR1P could also be more easily packaged as cargo inside nanometer or micron sized storage vehicles for tissue or cell targeted therapy.
8 week old female C3H/HENCrl (Charles River Laboratories, Cambridge, MA) mice (22±2 g) were placed in a whole-animal nebulization chamber (14×5×8 cm) and allowed to spontaneously inhale (20 min) nebulized LPS (Salmonela enterica, Sigma-Aldrich, St. Louis, MO), PR1P, scrambled peptide (SP), or VEGF. […]

Molecule: VEGF
lung cell VEGFR-2 phosphorylation (VEGFR-2): increased pVEGFR2

Molecule: Cc1cc(C)c(/C=C2\C(=O)Nc3ccccc32)[nH]1 [SU5416]
effect of PR1P on the phosphorylation level of VEGFR-2 in presence of inhibitor (VEGFR2): significantly reduced
effect of PR1P on the phosphorylation level of AKT in presence of inhibitor (AKT): significantly reduced

Molecule: elastase: porcine pancreatic elastase (PPE) used intra-tracheally to induce emphysema phenotype
half-life of exogenous elastase administered into the animal lungs [1]: approximately 50 minutes

ill effects from therapy [2]: ill effects were not observed
Molecule: DRVQRQTTTVVA [PR1P, DRVQRQTTTVVA]
